The text below walks through data of patent US20120232062A1, “AZAINDAZOLES TO TREAT FLAVIVIRIDAE VIRUS INFECTION” (EIGER BIOPHARMACEUTICALS, INC., priority 2009, published 2012).

Structures are written as SMILES. Read-outs that look alike come from different tables or passages of the source.

One assay concerns the target T1, hERG channel (Homo sapiens, UniProt Q12809).
T1 construct: host or cells: CHO (Chinese Hamster Ovary), stably transfected
In words: hERG channel assay. It is filed as cell-based. The settings on record: CHO cell line expressing hERG, whole cell recordings. The procedure: The most common mechanism for these adverse events is the inhibition of one or more cardiac potassium channels, in particular hERG. This current is important for cardiac myocyte repolarization and is a common target for drugs that prolong the QT interval. Test articles in this study were therefore characterized to determine their ability to inhibit the hERG channel. Ion channel activity was measured using a stably transfected Chinese Hamster Ovary (CHO) cell line expressing the hERG mRNA. The pharmacology of this cloned channel expressed in the CHO cell line is very similar to that observed in native tissue.
Cells: AVIVA's CHO cell line, which stably expresses hERG channels, was used for the study. Cells were cultured in DMEM/F12 containing 10% FBS, 1% penicillin/streptomycin and 500 μg/ml G418. Before testing, cells were harvested using Accumax (Innovative Cell Technologies).
Solutions: For electrophysiological recordings, the following solutions were used. External Solution: 2 mM CaCl2; 2 mM MgCl2; 4 mM KCl; 150 mM NaCl; 10 mM Glucose; 10 mM HEPES; 310-320 mOsm; pH 7.4 (adjusted with 1M NaOH). Internal Solution: 140 mM KCl; 10 mM MgCl2; 6 mM EGTA; 5 mM HEPESNa; […]; 300-320 mOsm; pH 7.25 (adjusted with 1M KOH).
Electrophysiology: Whole cell recordings were performed using PX 7000A (Axon Instruments) with VIVA's SealChip™ technology. Cells were voltage clamped at a holding potential of −80 mV. The hERG current was then activated by a depolarizing step to −50 mV for 300 ms. This first step at −50 mV was used as a baseline for measuring peak amplitude of the tail current. Next, a voltage step to +20 mV was applied for 5 s to activate the channels. Finally a step back to −50 mV for 5 seconds removed activation and the deactivating tail current was recorded.
Compound Handling and Dilutions: All compounds were prepared from either 10 or 30 mM DMSO stock solutions. Solutions were mixed by sonication for 20 min, followed by vigorous vortexing. Prior to testing, compounds were diluted to test concentrations in glass vials using External Solution. Dilutions were prepared no longer than 20 min prior to use. Equal amounts of DMSO (0.1%) were present in all final dilutions.
Electrophysiology Procedures: After achieving whole cell configuration, cells were monitored for 90 s to assess stability and then washed with External Solution for 66 s. The voltage protocol described above was then applied to the cells every 12 s throughout the procedure. Only stable cells with recording parameters above threshold (see Quality Control section) were allowed to enter the drug addition procedure. External solution containing 0.1% DMSO (vehicle) was applied to the cells to establish a baseline. After allowing the current to stabilize for 3 to 5 min, test articles were applied. Test article solutions were added to cells in 4 separate additions. Cells were kept in test solution until effect of the test article reached steady state, to a maximum of 12 min. Next, 1 μM cisapride (positive control) was added. Finally, washout with External Solution was performed until the recovery current reached a steady state.
Data Analysis: Data analysis was performed using DataXpress (Axon Instruments), Clampfit (Axon Instruments) and Origin (Originlab Corporation) software.
For orientation: The hERG channel carries a current that helps repolarise heart muscle cells.

Another assay relates to HCV genotype 1b. In words: HCV 1b replicon luciferase assay. Format: cell-based. In outline:
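Luminescence (Steady-Glo) served as the replication read-out after 48 h compound exposure of 1b replicon-luciferase Huh7 cells seeded at 10k/well. Dosing used 5-fold serial dilutions, 10 concentrations, top 25 μM final, 0.1% DMSO, duplicates.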

[1] abbreviates: Hepatitis C virus, Huh-7, 48 h, Table 1, Huh7 HCV 1b replicon, luciferase reporter, 48 hours, read-out: 1b EC50.
Where [2] appears, read: Hepatitis C virus, read-out: 1b replicon EC50, Tables 4, 5 and text of the rat PK section.
Where [3] appears, read: read-out: 1b replicon EC50, Tables 4, 5 and the rat PK section.

T1 sequence (Q12809 whole entry): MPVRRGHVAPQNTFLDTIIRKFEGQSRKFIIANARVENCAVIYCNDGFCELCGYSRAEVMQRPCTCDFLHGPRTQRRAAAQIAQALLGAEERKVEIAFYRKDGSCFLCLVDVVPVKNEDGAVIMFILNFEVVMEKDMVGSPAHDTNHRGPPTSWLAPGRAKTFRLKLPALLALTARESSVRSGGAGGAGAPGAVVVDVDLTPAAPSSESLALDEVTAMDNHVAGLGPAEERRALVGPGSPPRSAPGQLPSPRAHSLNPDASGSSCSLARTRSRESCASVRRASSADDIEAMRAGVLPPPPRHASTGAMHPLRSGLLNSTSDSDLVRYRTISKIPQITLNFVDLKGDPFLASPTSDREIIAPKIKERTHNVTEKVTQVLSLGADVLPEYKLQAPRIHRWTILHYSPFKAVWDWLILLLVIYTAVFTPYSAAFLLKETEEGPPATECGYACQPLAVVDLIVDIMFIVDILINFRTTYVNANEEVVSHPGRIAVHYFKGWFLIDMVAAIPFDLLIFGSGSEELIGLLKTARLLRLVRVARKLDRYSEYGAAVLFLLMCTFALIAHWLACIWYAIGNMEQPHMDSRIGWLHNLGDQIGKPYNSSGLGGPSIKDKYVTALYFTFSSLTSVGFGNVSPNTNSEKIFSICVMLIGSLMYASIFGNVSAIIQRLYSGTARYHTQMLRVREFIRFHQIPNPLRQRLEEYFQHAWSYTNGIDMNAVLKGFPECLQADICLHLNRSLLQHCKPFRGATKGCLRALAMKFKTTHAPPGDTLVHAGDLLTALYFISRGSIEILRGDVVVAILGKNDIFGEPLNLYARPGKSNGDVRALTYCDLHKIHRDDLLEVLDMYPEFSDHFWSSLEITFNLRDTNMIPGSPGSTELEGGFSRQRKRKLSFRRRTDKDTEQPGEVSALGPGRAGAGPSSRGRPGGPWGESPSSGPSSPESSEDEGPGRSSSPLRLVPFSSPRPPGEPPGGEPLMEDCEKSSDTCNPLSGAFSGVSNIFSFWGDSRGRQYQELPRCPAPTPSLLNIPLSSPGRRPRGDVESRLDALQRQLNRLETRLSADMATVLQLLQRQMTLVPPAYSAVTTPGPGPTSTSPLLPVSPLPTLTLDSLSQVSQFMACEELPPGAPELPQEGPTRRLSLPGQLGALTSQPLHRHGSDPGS

The term IC50 denotes the concentration at which inhibition is half-maximal. A higher IC50 goes with a need for much substance. In general, EC50 refers to the midpoint of the concentration-response curve. On hERG channel, `Cn1nc(C(=O)NC2CCNCC2)c2ccc(N3CCCCCC3)nc21.O=C(O)C(F)(F)F.O=C(O)C(F)(F)F` [compound 697] displayed an IC50 of more than 10000 nM. Moreover, the EC50 with HCV genotype 1b (setting [1]) is 670 nM.

As for `Cn1nc(C(=O)NC2CCN(CCN3CCCC3)CC2)c2ccc(N3CCCCCC3)nc21` [compound 1597], on hERG channel, the IC50 is 9100 nM. Moreover, the EC50 with HCV genotype 1b (setting [1]) turned out to be 770 nM. As for `CCC(CC)Oc1ccc2c(COCC3CCCNC3)nn(Cc3ccc(Cl)cc3)c2n1.O=C(O)C(F)(F)F` (stereo not shown) [compound 755], the concentration for half-maximal inhibition (IC50) against hERG channel is more than 10000 nM. In addition, the EC50 in the assay with HCV genotype 1b (setting [1]) came to 3200 nM. Take `Cn1nc(C(=O)NC2CCN(CCN3CCCC3)CC2)c2ccc(N3CCCCCC3)nc21` [EBP1597]: the EC50 was 500 to 2000 nM with HCV genotype 1b (setting [2]) and 900 nM with HCV genotype 1b (setting [3]). For `CC(C)N1CCC(NC(=O)c2nn(C)c3nc(N4CCCCCC4)ccc23)CC1` [EBP1604], in the assay on HCV genotype 1b (setting [3]), the EC50 was 2200 nM.

As to `Cn1nc(CCCN2CCCC2)c2ccc(N3CCCCCCC3)nc21` [compound 1171], the EC50 with HCV genotype 1b (setting [1]) came to 1600 nM. On to `CCN1CCC(NC(=O)c2nn(C)c3nc(N4CCCCCC4)ccc23)CC1` [EBP1595], for which the figures for the EC50 with HCV genotype 1b (setting [2]) and with HCV genotype 1b (setting [3]) were 500 to 2000 nM and 1000 nM, respectively. The molecule `O=C(NC1CCNCC1)c1nn(C(=O)C2CCCCC2)c2nc(N3CCCCCC3)ccc12.O=C(O)C(F)(F)F.O=C(O)C(F)(F)F.O=C(O)C(F)(F)F` [compound 989] gave an IC50 at hERG channel of more than 10000 nM. In addition, the EC50 in the assay on HCV genotype 1b (setting [1]) turned out to be 2600 nM. Take `Cn1nc(C(=O)NC2CCN(CCN3CCCCC3)CC2)c2ccc(N3CCCCCC3)nc21` [EBP1047]: the EC50 in the assay with HCV genotype 1b (setting [2]) was 500 to 2000 nM; with HCV genotype 1b (setting [3]), 500 nM. Turning to `CCN1CCC(NC(=O)c2nn(C)c3nc(N4CCCCCC4)ccc23)CC1` [compound 1595], the IC50 on hERG channel is 1100 nM. Besides, in the assay on HCV genotype 1b (setting [1]), the EC50 came to 740 nM. For `Cn1nc(C(=O)NC2CCN(CCN3CCCCC3)CC2)c2ccc(N3CCCCCC3)nc21` [compound 1047], in that order: 9500 nM and 520 nM. In the case of `Cn1nc(C(=O)NC2CCN(CC(F)F)CC2)c2ccc(N3CCCCCC3)nc21` [compound 1110], the EC50 in the assay with HCV genotype 1b (setting [1]) came to 1800 nM. At hERG channel, `Cn1nc(C(=O)NC2CCN(CC3CCCCC3)CC2)c2ccc(N3CCCCCCC3)nc21` [compound 1062] displayed an IC50 of more than 10000 nM. For the same molecule, in the assay on HCV genotype 1b (setting [1]), the EC50 came out at 356 nM. For `CCC(CC)Oc1ccc2c(C(=O)NC3CCNCC3)n[nH]c2n1` [compound 726], in that order: more than 10000 nM and 1200 nM.

In turn, `Clc1ccc(Cn2nc(COCCCN3CCCCC3)c3ccc(N4CCCCCC4)nc32)cc1` [compound 749] displayed an IC50 against hERG channel of 3300 nM. In addition, in the assay with HCV genotype 1b (setting [1]), the EC50 was found to be 2000 nM.

In the case of `Cn1nc(CCCN2CCCCC2CO)c2ccc(N3CCCCCCC3)nc21` (stereo not shown) [compound 1456], the EC50 in the assay with HCV genotype 1b (setting [1]) was 1500 nM.
